Reference: patent US20140088144A1, “INHIBITING MICROBIAL INFECTIONS” (THE UNIVERSITY OF KANSAS, priority 2012, published 2014)

What was measured:
RhaS-GB1^201b = molecular target: T1, RhaS-GB1^201b (Escherichia coli, UniProt P09377, L201R); assay: EMSA in vitro DNA binding by RhaS-GB1^201b; assay type: biochemical, E. coli
T1 construct: solubility-enhancement tag to the C-terminus of full-length RhaS L201R; GB1basic (basic variant of GB1 solubility-enhancement tag) (C); made in house; host or cells: E. coli Acella, pET21-derived plasmid
Source text: All proteins for this study were expressed in E. coli. Untagged CRP was purified by Ni^2+-affinity chromatography as described. Lad protein was purified by ammonium sulfate precipitation and phosphocellulose column chromatography as described. RhaS-GB1^201b and GB1^b-RhaR were purified by Ni^2+-affinity chromatography. Briefly, plasmids derived from pET21 and expressing RhaS-GB1^201b and GB1^b-RhaR were transformed into competent cells of strains Acella™ (MoBiTec, Gottingen, Germany) or ArcticExpress(DE3) (Agilent Technologies, Santa Clara Calif.), respectively. The cells were grown in 1 liter TY plus ampicillin and rhamnose. Gentamycin was also added for GB1^b-RhaR. The cells were grown to OD600 of 0.5, transferred to a 15° C. shaker, 0.1 mM IPTG was added, and then incubated overnight. Cells were harvested by centrifugation and then resuspended in 30 mL of cold binding buffer (20 mM Tris, 500 mM NaCl, 5 mM imidazole, pH 7.9) plus L-rhamnose. […]
(§1) IRD700- and DY682-labeled oligos were from Eurofins MWG Operon. […] EMSA gels were imaged using an Odyssey infrared imager (LI-COR, Lincoln, Nebr.), and quantified using the Odyssey software, version 3.0.30. […] Inhibition values were calculated and graphs were drawn as for in vivo dose-response experiments.

MBP-Rns = molecular target: T2, MBP-Rns (Escherichia coli, UniProt P16114); assay: EMSA in vitro DNA binding by MBP-Rns; assay type: biochemical, Enterotoxigenic E. coli
T2 construct: made in house
Source text: FIGS. 9A-9B show inhibition of MBP-Rns and MBP-VirF by Compound 1. Quantification of EMSA of MBP-Rns (FIG. 9A) or example EMSA of MBP-VirF (FIG. 9B) DNA binding with the indicated inhibitor concentrations [micromolar]. F is Free DNA.
(§2) The compounds of the invention can be used for inhibition of virulence in vivo and in vitro activation by Rns and VirF.

VirF = VirF (Shigella flexneri, UniProt P0A2T1); assay: Shigella virB-lacZ reporter gene assay; assay type: cell-based, S. flexneri; set-up: endogenously expressed VirF in a Shigella strain carrying a virB-lacZ reporter construct; endogenous in cells; host or cells: S. flexneri strain BS536 (virB-lacZ)
Experimental: Colonies of S. flexneri strain BS536 that were red on TSA plates containing Congo red were grown overnight in Luria-Bertani broth at 30° C. to maintain low basal expression from the virB promoter. The overnight grown cultures were diluted 1:100 into 10 ml of the same medium with either 0.3% DMSO or different concentrations of SE-1 dissolved in DMSO (final concentration 0.3% DMSO). Cultures were grown at 37° C. in a shaking incubator to an OD600 of ˜0.4, centrifuged to pellet the cells and then resuspended in Z buffer for a two-fold concentration of the cells. Control cultures were grown at 30° C., a temperature at which virF expression is not induced (37), to illustrate the basal level of expression from the virB promoter region. β-Galactosidase assays were performed, with incubation with the substrate o-nitrophenyl-β-D-galactopyranoside (ONPG) was at room temperature. Activities are presented as a percentage of the uninhibited, DMSO-only control sample. Three independent assays were performed with two replicates in each assay.

GB1^b-RhaR = molecular target: T3, GB1^b-RhaR (Escherichia coli, UniProt P09378); assay: EMSA in vitro DNA binding by GB1^b-RhaR; assay type: biochemical, E. coli
T3 construct: GB1basic (N); made in house; host or cells: E. coli ArcticExpress(DE3), pET21-derived plasmid
Source text: All proteins for this study were expressed in E. coli. Untagged CRP was purified by Ni^2+-affinity chromatography as described. Lad protein was purified by ammonium sulfate precipitation and phosphocellulose column chromatography as described. RhaS-GB1^201b and GB1^b-RhaR were purified by Ni^2+-affinity chromatography. Briefly, plasmids derived from pET21 and expressing RhaS-GB1^201b and GB1^b-RhaR were transformed into competent cells of strains Acella™ (MoBiTec, Gottingen, Germany) or ArcticExpress(DE3) (Agilent Technologies, Santa Clara Calif.), respectively. The cells were grown in 1 liter TY plus ampicillin and rhamnose. Gentamycin was also added for GB1^b-RhaR. The cells were grown to OD600 of 0.5, transferred to a 15° C. shaker, 0.1 mM IPTG was added, and then incubated overnight. Cells were harvested by centrifugation and then resuspended in 30 mL of cold binding buffer (20 mM Tris, 500 mM NaCl, 5 mM imidazole, pH 7.9) plus L-rhamnose. Cells were lysed by three cycles of freeze thaw [with addition of lysozyme (0.4 mg/mL), tris(2-carboxyethyl)phosphine (TCEP, 1 mM) and phenylmethylsulfonyl fluoride (PMSF, 1 mM), at −80° C.] followed by sonication, and then centrifuged to remove cell debris. The supernatant was applied using an AKTAexplorer FPLC (GE Healthcare) to a 5 mL HiTrap Chelating HP column (GE Healthcare) that had been charged with 50 mM NiSO4, and equilibrated with 15 mL H2O and then 15 mL binding buffer. After loading, the column was washed with 25 mL binding buffer, then 25 mL wash buffer (binding buffer, but with 60 mM imidazole) plus L-rhamnose. A 10 mL gradient of binding buffer with 60 mM to 250 mM imidazole from was run and then 15 mL of elution buffer (binding buffer, but with 250 mM imidazole). […]
as §1

Rns = Rns (Escherichia coli, UniProt P16114); assay: In vivo activation by Rns (promoter-lacZ fusion); assay type: cell-based, Enterotoxigenic E. coli; conditions: compared with full-length RhaS
Source text: Expression of promoter-lacZ fusions regulated by the indicated activators, or the control Lad regulated fusion at the indicated concentrations of Compound 1. Average of three independent experiments, with two replicates in each experiment.
as §2

T3 sequence (P09378 whole entry): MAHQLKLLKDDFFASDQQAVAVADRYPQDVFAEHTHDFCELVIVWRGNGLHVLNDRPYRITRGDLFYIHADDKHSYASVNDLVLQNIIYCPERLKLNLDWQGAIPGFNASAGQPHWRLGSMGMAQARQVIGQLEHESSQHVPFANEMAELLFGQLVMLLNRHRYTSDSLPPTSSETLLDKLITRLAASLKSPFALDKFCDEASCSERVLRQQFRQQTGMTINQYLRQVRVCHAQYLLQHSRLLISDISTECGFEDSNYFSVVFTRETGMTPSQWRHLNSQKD
T1 sequence (P09377 whole entry L201R): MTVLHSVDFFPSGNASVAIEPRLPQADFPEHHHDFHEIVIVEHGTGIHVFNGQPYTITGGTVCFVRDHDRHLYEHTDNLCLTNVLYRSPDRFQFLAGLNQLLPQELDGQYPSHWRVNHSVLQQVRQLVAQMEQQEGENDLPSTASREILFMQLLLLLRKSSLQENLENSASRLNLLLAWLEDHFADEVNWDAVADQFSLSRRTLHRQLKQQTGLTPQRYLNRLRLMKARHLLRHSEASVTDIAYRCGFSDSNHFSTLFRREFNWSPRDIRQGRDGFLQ
Chain of VirF (P0A2T1 whole entry): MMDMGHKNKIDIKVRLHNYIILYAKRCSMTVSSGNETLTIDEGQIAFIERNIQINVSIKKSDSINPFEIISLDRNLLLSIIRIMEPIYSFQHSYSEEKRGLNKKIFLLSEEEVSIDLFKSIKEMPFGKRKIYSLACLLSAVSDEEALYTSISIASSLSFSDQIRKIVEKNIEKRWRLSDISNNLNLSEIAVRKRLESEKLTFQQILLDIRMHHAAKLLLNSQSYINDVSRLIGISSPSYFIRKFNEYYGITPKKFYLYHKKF
Chain of Rns (P16114 whole entry, the tested form may be a part): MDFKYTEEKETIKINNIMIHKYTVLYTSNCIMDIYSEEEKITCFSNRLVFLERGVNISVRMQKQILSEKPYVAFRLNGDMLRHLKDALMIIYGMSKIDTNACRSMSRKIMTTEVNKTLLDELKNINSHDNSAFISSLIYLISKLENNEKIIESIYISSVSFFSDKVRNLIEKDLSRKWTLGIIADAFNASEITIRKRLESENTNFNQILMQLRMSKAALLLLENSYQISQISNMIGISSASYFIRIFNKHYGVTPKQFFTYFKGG
T2 sequence (P16114 whole entry): as the sequence (P16114 whole entry, the tested form may be a part) above

Structure (SMILES): CCCCN1C=C(c2ccc3ccccc3n2)C(C[N+](=O)[O-])c2ccccc21 (stereo not drawn) [Compound 1, 1-butyl-4-(nitromethyl)-3-quinolin-2-yl-4H-quinoline]
- IC50 (RhaS-GB1^201b): ~70 µM
- inhibition of DNA binding by RhaS-GB1^201b (RhaS-GB1^201b; EMSA, dose-dependent): fully inhibit DNA binding
- inhibition of in vitro DNA binding by purified Rns (MBP-Rns): similarly inhibits
- IC50 (VirF): ~30 µM
- maximum inhibition of virB-lacZ expression (VirF; 40 μM SE-1): greater than two fold
- IC50 (GB1^b-RhaR): ~140 µM
- concentration for 50% inhibition of GB1^b-RhaR relative to RhaS-GB1^201b (GB1^b-RhaR): two-fold higher
- inhibition of GB1^b-RhaR binding to DNA (GB1^b-RhaR): fully inhibit
- inhibition of in vivo activation by Rns (Rns): similar, if not greater, extent than full-length RhaS
